Experimental data reported in the supplement of paper PMC4862054.

Assays:
Experiment in all cases: normalised viability (% of control), CellTiter-Blue; higher = more viable cells (about 100 = DMSO control)
Details in all cases: incubation time: 72 h
[1] = tested on: DU-4475
Description: (§1)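 DSRT, CellTiter-Blue viability, 72 h incubation. Signal is normalised to DMSO and benzethonium chloride controls. Value is the normalised response at dose 8.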

[2] = tested on: CAL-51
Description: as §1

[3] = tested on: MDA-MB-453
Description: as §1

[4] = tested on: CAL-85-1
Description: as §1

[5] = tested on: CAL-148
Description: as §1

[6] = tested on: HDQ-P1
Description: as §1

[7] = tested on: DU-4475; remark: listed apart in the source
Description: (§2)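 DSRT, CellTiter-Blue viability, 72 h incubation. Signal is normalised to DMSO and benzethonium chloride controls. Value is the normalised response at dose 7.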

[8] = tested on: CAL-51; remark: listed apart in the source
Description: as §2

[9] = tested on: MDA-MB-453; remark: listed apart in the source
Description: as §2

[10] = tested on: CAL-85-1; remark: listed apart in the source
Description: as §2

[11] = tested on: CAL-148; remark: listed apart in the source
Description: as §2

[12] = tested on: HDQ-P1; remark: listed apart in the source
Description: as §2

[13] = tested on: DU-4475; remark: listed apart in the source
Description: (§3)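 DSRT, CellTiter-Blue viability, 72 h incubation. Signal is normalised to DMSO and benzethonium chloride controls. Value is the normalised response at dose 6.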

[14] = tested on: CAL-51; remark: listed apart in the source
Description: as §3

[15] = tested on: MDA-MB-453; remark: listed apart in the source
Description: as §3

[16] = tested on: CAL-85-1; remark: listed apart in the source
Description: as §3

[17] = tested on: CAL-148; remark: listed apart in the source
Description: as §3

[18] = tested on: HDQ-P1; remark: listed apart in the source
Description: as §3

SMILES	normalised viability [1]	normalised viability [2]	normalised viability [3]	normalised viability [4]	normalised viability [5]	normalised viability [6]	normalised viability [13]	normalised viability [14]	normalised viability [15]	normalised viability [16]	normalised viability [17]	normalised viability [18]	further results
Cc1c(N)nc([C@H](CC(N)=O)NC[C@H](N)C(N)=O)nc1C(=O)N[C@H](C(=O)N[C@H](C)[C@@H](O)[C@H](C)C(=O)N[C@H](C(=O)NCCc1nc(-c2nc(C(=O)NCCC[S+](C)C)cs2)cs1)[C@@H](C)O)[C@@H](OC1OC(CO)C(O)C(O)C1OC1OC(CO)C(O)C(OC(N)=O)C1O)c1cnc[nH]1 (stereo partly drawn) [Bleomycin] (3000 nM)	107%	96.5%	101%	92.7%	88.2%	76.5%	–	–	–	–	–	–	–
CN1CCN(c2nc(C3=C(c4c[nH]c5ccccc45)C(=O)NC3=O)c3ccccc3n2)CC1 [Sotrastaurin] (3000 nM)	95.9%	97.3%	93.8%	141%	116%	126%	–	–	–	–	–	–	–
C[C@]12C=CC(=O)C=C1CC[C@@H]1[C@@H]2C(=O)C[C@@]2(C)[C@H]1CC[C@]2(O)C(=O)CO [Prednisone] (3000 nM)	104%	102%	93.5%	99.3%	94.2%	120%	–	–	–	–	–	–	–
COc1cc2c(Oc3ccc(NC(=O)C4(C(=O)Nc5ccc(F)cc5)CC4)cc3F)ccnc2cc1OCCCN1CCOCC1 [Foretinib] (300 nM)	98.8%	68.5%	75.4%	84%	91.6%	60.9%	–	–	–	–	–	–	–
COc1cc2c(N3CCN(C(=O)Nc4ccc(OC(C)C)cc4)CC3)ncnc2cc1OCCCN1CCCCC1 [Tandutinib] (300 nM)	109%	115%	102%	95.7%	94.4%	93.5%	–	–	–	–	–	–	–
C[C@@H](CN1CC(=O)NC(=O)C1)N1CC(=O)NC(=O)C1 [Dexrazoxane] (1000 nM)	–	–	–	–	–	–	–	–	–	–	–	–	normalised viability [7]: 83.6%; normalised viability [8]: 97.4%; normalised viability [9]: 97.8%; normalised viability [10]: 86.9%; normalised viability [11]: 102%; normalised viability [12]: 107%
Cc1c(C(=O)Nc2ccc(N3C[C@@H](C)O[C@@H](C)C3)nc2)cccc1-c1ccc(OC(F)(F)F)cc1 [NVP-LDE225] (300 nM)	–	–	–	–	–	–	101%	105%	88.1%	108%	95.2%	36.5%	–
Cc1c(C(=O)Nc2ccc(N3C[C@@H](C)O[C@@H](C)C3)nc2)cccc1-c1ccc(OC(F)(F)F)cc1 [NVP-LDE225] (1000 nM)	–	–	–	–	–	–	–	–	–	–	–	–	normalised viability [7]: 118%; normalised viability [8]: 99.5%; normalised viability [9]: 92.9%; normalised viability [10]: 98.8%; normalised viability [11]: 107%; normalised viability [12]: 90.1%
C[C@@H](C(=O)O)c1ccc(-c2ccccc2)c(F)c1 [Tarenflurbil] (3000 nM)	115%	113%	79.5%	88.8%	94.4%	93%	–	–	–	–	–	–	–
O=NN(CCCl)C(=O)NC1CCCCC1 [Lomustine] (3000 nM)	89.1%	113%	112%	93.8%	103%	99.7%	–	–	–	–	–	–	–
Nc1nc(Cl)nc2c1ncn2[C@@H]1O[C@H](CO)[C@@H](O)[C@@H]1F [Clofarabine] (3000 nM)	19.6%	15.4%	44.4%	54.5%	32.9%	95.6%	–	–	–	–	–	–	–
Nc1nc(Cl)nc2c1ncn2[C@@H]1O[C@H](CO)[C@@H](O)[C@@H]1F [Clofarabine] (300 nM)	–	–	–	–	–	–	77%	81.9%	82.9%	65.1%	68.7%	70.1%	–
CC/C(=C(\c1ccccc1)c1ccc(OCCN(C)C)cc1)c1ccccc1 [Tamoxifen] (300 nM)	–	–	–	–	–	–	113%	89.5%	97.8%	106%	112%	93.8%	–
O=NN(CCCl)C(=O)NC1CCCCC1 [Lomustine] (300 nM)	–	–	–	–	–	–	110%	105%	112%	104%	106%	84.1%	–
COc1cc2c(Oc3ccc(NC(=O)C4(C(=O)Nc5ccc(F)cc5)CC4)cc3F)ccnc2cc1OCCCN1CCOCC1 [Foretinib] (30 nM)	–	–	–	–	–	–	84.3%	93.3%	94.1%	89.2%	95.1%	59.1%	–
C[C@@H](C(=O)O)c1ccc(-c2ccccc2)c(F)c1 [Tarenflurbil] (300 nM)	–	–	–	–	–	–	89.8%	117%	104%	101%	93.6%	64.5%	–
CN1CCN(c2nc(C3=C(c4c[nH]c5ccccc45)C(=O)NC3=O)c3ccccc3n2)CC1 [Sotrastaurin] (300 nM)	–	–	–	–	–	–	99.9%	87%	96.2%	117%	120%	56.9%	–
NC(=O)NO [Hydroxyurea] (30000 nM)	104%	111%	93.1%	89.1%	103%	104%	–	–	–	–	–	–	–
